Tested on: production of TNF by monocytes activated with bacterial lipopolysaccharide (LPS)
Assay: Lipopolysaccharide-activated monocyte TNF production assay
Type: cell-based
Details: Homo sapiens, read-out: IC50 values in the monocyte assay (LPS induced TNF release)
Procedure, shortened: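 Adherent human PBMC-derived monocytes (~70%) in DMEM/2% FCS were pre-incubated 60 min with nine two-fold compound dilutions, then stimulated with E. coli K532 LPS (added as 30 ng/ml solution) for 4 h at 37 °C. Supernatant TNF-α was measured by sandwich ELISA. IC50 was taken from a polynomial fit of TNF versus compound concentration.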

Structure (SMILES) | IC50
Cc1ccc(C(=O)Nc2c(N(C)CCCN(C)C)ccc(C(F)(F)F)c2C)cc1-c1ccc2nc(N)ncc2c1 [Example 117, 3-(2-amino-6-quinazolinyl)-N-(6-((3-(dimethylamino)propyl)(methyl)amino)-2-methyl-3-(trifluoromethyl)phenyl)-4-methylbenzamide] | ≤ 25 µM
Cc1ccc(C(=O)Nc2cc(C(F)(F)F)ccc2F)cc1-c1ccc2nc(N)ncc2c1 [Example 280, 3-(2-amino-6-quinazolinyl)-N-(2-fluoro-5-(trifluoromethyl)phenyl)-4-methylbenzamide] | ≤ 25 µM
CCc1ccnc(NC(=O)c2ccc(C)c(-c3ccc4nc(N)ncc4c3)c2)c1 [Example 340, 3-(2-amino-6-quinazolinyl)-N-(4-ethyl-2-pyridinyl)-4-methylbenzamide] | ≤ 25 µM
CNc1ncc2cc(-c3cccc(NC(=O)c4cc(C(F)(F)F)ccc4F)c3C)cnc2n1 [Example 223, 2-fluoro-N-(2-methyl-3-(2-(methylamino)pyrido[2,3-d]pyrimidin-6-yl)phenyl)-5-(trifluoromethyl) benzamide] | ≤ 25 µM
Cc1ccc(C(=O)Nc2cc(C(F)(F)F)ccc2C(C)(C)CN(C)C)cc1-c1ccc2nc(N)ncc2c1 [Example 83, 3-(2-amino-6-quinazolinyl)-N-(2-(2-(dimethylamino)-1,1-dimethylethyl)-5-(trifluoromethyl)phenyl)-4-methylbenzamide] | ≤ 25 µM
Cc1ccc(C(=O)NCc2ccncc2)cc1-c1ccc2nc(N)ncc2c1 [Example 425, 3-(2-amino-6-quinazolinyl)-4-methyl-N-(4-pyridinylmethyl) benzamide] | ≤ 25 µM
COc1ccc(OC)c(NC(=O)c2ccc(C)c(-c3ccc4nc(N)ncc4c3)c2)c1 [Example 148, 3-(2-amino-6-quinazolinyl)-N-(2,5-bis(methyloxy)phenyl)-4-methylbenzamide] | ≤ 25 µM
COc1ccc(C(F)(F)F)cc1NC(=O)c1ccc(C)c(-c2ccc3nc(N)ncc3c2)c1 [Example 41, 3-(2-amino-6-quinazolinyl)-4-methyl-N-(2-(methyloxy)-5-(trifluoromethyl)phenyl)benzamide] | ≤ 25 µM
Cc1ccc(C(=O)Nc2nc3cc(Cl)ccc3o2)cc1-c1ccc2nc(N)ncc2c1 [Example 342, 3-(2-amino-6-quinazolinyl)-N-(5-chloro-1,3-benzoxazol-2-yl)-4-methylbenzamide] | ≤ 25 µM
Cc1ccc(C(=O)Nc2ccc(OCCCN(C)C)cc2)cc1-c1ccc2nc(N)ncc2c1 [Example 69, 3-(2-amino-6-quinazolinyl)-N-(4-((3-(dimethylamino)propyl)oxy)phenyl)-4-methylbenzamide] | ≤ 25 µM
CCN(CC)CCNC(=O)c1cc(NC(=O)c2ccc(C)c(-c3cnc4nc(NC)ncc4c3)c2)cc(C(F)(F)F)c1 [Example 190, N-(3-(((2-(diethylamino)ethyl)amino)carbonyl)-5-(trifluoromethyl)phenyl)-4-methyl-3-(2-(methylamino)pyrido [2,3-d]pyrimidin-6-yl)benzamide] | ≤ 25 µM
Cc1ccc(C(=O)Nc2cccc(C(F)(F)F)c2C)cc1-c1ccc2nc(NC3CCN(C)CC3)ncc2c1 [Example 36, 4-methyl-3-(2-((1-methyl-4-piperidinyl)amino)-6-quinazolinyl)-N-(2-methyl-3-(trifluoromethyl)phenyl)benzamide] | ≤ 25 µM
COc1ccc(C(=O)Nc2ccccc2)cc1NC(=O)c1ccc(C)c(-c2ccc3nc(N)ncc3c2)c1 [Example 145, 3-(2-amino-6-quinazolinyl)-4-methyl-N-(2-(methyloxy)-5-((phenylamino)carbonyl)phenyl) benzamide] | ≤ 25 µM
Cc1ccc(C(F)(F)F)cc1NC(=O)c1ccc(C)c(-c2ccc3nc(N)ncc3c2)c1 [Example 365, 3-(2-amino-6-quinazolinyl)-4-methyl-N-(2-methyl-5-(trifluoromethyl)phenyl)benzamide] | ≤ 25 µM
Cc1ccc(C(=O)Nc2cccc(C(F)(F)F)c2C)cc1-c1ccc2nc(NCCCN3CCCC3=O)ncc2c1 [Example 34, 4-methyl-N-(2-methyl-3-(trifluoromethyl)phenyl)-3-(2-((3-(2-oxo-1-pyrrolidinyl)propyl)amino)-6-quinazolinyl) benzamide] | ≤ 25 µM
Nc1ncc2cc(-c3cc(NC(=O)c4cccc(Cl)c4Cl)ccc3Cl)ccc2n1 [Example 482, N-(3-(2-amino-6-quinazolinyl)-4-chlorophenyl)-2,3-dichlorobenzamide] | ≤ 25 µM
Cc1ccc(C(=O)N[C@@H](C)c2nccs2)cc1-c1ccc2nc(N)ncc2c1 [Example 121, 3-(2-amino-6-quinazolinyl)-4-methyl-N-((1S)-1-(1,3-thiazol-2-yl)ethyl)benzamide] | ≤ 25 µM
Cc1ccc(C(=O)Nc2nc(C(C)(C)C)cs2)cc1-c1ccc2nc(N)ncc2c1 [Example 352, 3-(2-amino-6-quinazolinyl)-N-(4-(1,1-dimethylethyl)-1,3-thiazol-2-yl)-4-methylbenzamide] | ≤ 25 µM
CCN(CC)S(=O)(=O)c1ccc(OC)c(NC(=O)c2ccc(C)c(-c3cnc4nc(NC)ncc4c3)c2)c1 [Example 191, N-(5-((diethylamino)sulfonyl)-2-(methyloxy)phenyl)-4-methyl-3-(2-(methylamino)pyrido [2,3-d]pyrimidin-6-yl)benzamide] | ≤ 25 µM
O=C(Nc1cccc(C(F)(F)F)c1)c1cccc(-c2ccc3ccnc(O)c3c2)c1 [Example 51, 3-(1-hydroxy-7-isoquinolinyl)-N-(3-(trifluoromethyl)phenyl)benzamide] | ≤ 25 µM
Cc1ccc(C(=O)Nc2ccc(C(C)(C)C)c(NC(=O)CN(C)C)c2)cc1-c1ccc2nc(N)ncc2c1 [Example 227, 3-(2-amino-6-quinazolinyl)-N-(4-(1,1-dimethylethyl)-3-((N,N-dimethylglycyl)amino)phenyl)-4-methylbenzamide] | ≤ 25 µM
CNc1ncc2cc(-c3cc(C(=O)Nc4cccc(C(F)(F)F)c4)c(F)cc3C)ccc2n1 [Example 38, 2-fluoro-4-methyl-5-(2-(methylamino)-6-quinazolinyl)-N-(3-(trifluoromethyl)phenyl)benzamide] | ≤ 25 µM
Cc1ccc(C(=O)NCCc2cccnc2)cc1-c1ccc2nc(N)ncc2c1 [Example 427, 3-(2-amino-6-quinazolinyl)-4-methyl-N-(2-(3-pyridinyl)ethyl)b enzamide] | ≤ 25 µM
Cc1c(NC(=O)c2cccc(C(F)(F)F)c2)cccc1-c1ccc2nc(N)ncc2c1 [Example 197, N-(3-(2-amino-6-quinazolinyl)-2-methylphenyl)-3-(trifluoromethyl)benzamide] | ≤ 25 µM
COc1ccc(NC(=O)c2ccc(C)c(-c3ccc4nc(N)ncc4c3)c2)c(OC)n1 [Example 233, 3-(2-amino-6-quinazolinyl)-N-(2,6-bis(methyloxy)-3-pyridinyl)-4-methylbenzamide] | ≤ 25 µM
Nc1ncc2cc(-c3cc(C(=O)Nc4cccc(C(F)(F)F)c4F)ccc3F)ccc2n1 [Example 136, 3-(2-amino-6-quinazolinyl)-4-fluoro-N-(2-fluoro-3-(trifluoromethyl)phenyl)benzamide] | ≤ 25 µM
CNc1ncc2cc(-c3cc(C(=O)NCc4ccccn4)ccc3C)cnc2n1 [Example 185, 4-methyl-3-(2-(methylamino)pyrido [2,3-d]pyrimidin-6-yl)-N-(2-pyridinylmethyl) benzamide] | ≤ 25 µM

From patent US20070054916A1, “Aryl nitrogen-containing bicyclic compounds and methods of use” (Amgen Inc., priority 2004, published 2007)
